The record followed here is publication PMC4501791, “Molecular Design, Synthesis and Trypanocidal Activity of Dipeptidyl Nitriles as Cruzain Inhibitors” (PLoS Neglected Tropical Diseases, 2015).

For experiment [1], the system named is T. cruzi Tulahuen strain amastigotes. As to the kind of experiment: Trypanocidal activity against amastigote forms in LLCMK2 cells, Tulahuen strain. The following applies: T. cruzi Tulahuen strain; for killing at 32 µM / EC50: Trypanosoma cruzi; for killing at 32 µM: LLC-MK2, 120 h, read-out: %cell lysis at 32 μM ama Tula; for killing at 32 µM / %cell lysis at 32 μM ama Tula: amastigote lysis, 5 days; for EC50: LLC-MK2, read-out: pEC50 ama Tula (converted). The class given is cell-based.
Description: (§1) The assays against amastigote forms were performed in LLCMK2 cells. Previously, the cells were cultivated in 96-wells microplates (10^3 cells/well). […] After this, the microplates were incubated at 37°C, in CO2 atmosphere, for 5 days. Then, 10 μL of FluoReporter lacZ/Galactosidase Quantitative Kit (Life Technologies) were added and after 30 minutes the fluorometric reaction was read in a microplate reader (Synergy H1, Biotek) at 386 nm excitation and 448 nm emission. For both assays the percentage of parasite lysis was determined from the following formula: %lysis = 100 –{[(X-PC)/(PC-NC)]x100}, where the optical density values of the samples (X), the positive controls (PC) and negative controls (NC) were used. Culture medium was used as positive control (PC) and medium with 0.6% DMSO (v/v) as negative control (NC). All assays were performed in triplicate with two independent experiments.

For experiment [2], the system named is T. cruzi CL-Brener strain amastigotes. Put plainly: Trypanocidal activity against amastigote forms in LLCMK2 cells, CL-Brener strain. The class given is cell-based. The following applies: 5 days; for killing at 32 µM: Trypanosoma cruzi, LLC-MK2, 120 h, amastigote lysis, read-out: %cell lysis at 32 μM ama Brener.
Description: as §1
The subject of another experiment is LLCMK2 cells. Put plainly: Lysis of LLCMK2 host cells. It is filed as cell-based. The note with it: for cytotoxicity at 32 µM: Macaca mulatta, LLC-MK2, 32 μM, read-out: %cell lysis at 32 μM LLCMK2.
A further experiment has as its target T1, cruzain (Trypanosoma cruzi, UniProt P25779).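 Also: fluorometric read-out of substrate hydrolysis at excitation 355 nm and emission 460 nm, initial rates over 5 min, Ki from nonlinear kinetic fits, duplicate runs.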
T1 construct: made in house
Put plainly: biochemical. The following applies: 37°C, pH 5.5, substrate Z-FR-AMC.

The term Ki denotes the dissociation constant of the complex between target and ligand, obtained from inhibition or displacement. A higher Ki goes with a looser hold on the target. By pKi is commonly meant −log10 of the Ki, conventionally taken in molar units. A low value points to a high Ki.

T1 sequence (P25779 123-337 limits assumed): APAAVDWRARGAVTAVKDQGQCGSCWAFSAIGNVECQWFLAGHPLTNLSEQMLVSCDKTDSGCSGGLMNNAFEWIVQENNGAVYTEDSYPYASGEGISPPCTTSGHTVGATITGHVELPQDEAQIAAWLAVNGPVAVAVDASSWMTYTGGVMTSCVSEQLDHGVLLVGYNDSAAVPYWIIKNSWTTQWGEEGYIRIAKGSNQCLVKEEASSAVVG
Description for cruzain: Enzyme kinetic assays were carried out at 37°C in 200 L of a solution containing 100 mM acetate buffer pH 5.5, 300 mM NaCl, 5 mM DTT (dithiothreitol), 5% v/v DMSO (dimethyl sulfoxide), 0.01% v/v Triton X-100 and 0.15 nM cruzain, using Corning® 96-well black flat bottom microplates. The rate of the reaction was monitored using a Biotek Synergy HT plate reader through the fluorescence emission at 460 nm (excitation at 355 nm) due to the hydrolysis of the substrate Z-Phe-Arg-7-amido-4-methylcoumarin (Z-FR-AMC, Sigma-Aldrich). The enzyme stock aliquot was rapidly thawed at 37°C and kept on ice until activation, in which it was incubated for 20 min. in the assay buffer (100 mM acetate pH 5.5 and 5 mM DTT) followed by additional 2 min. incubation with inhibitors before the reaction was started by the addition of the substrate.
Visual inspection and a pre-reading of plate wells were performed to check for possible precipitation and background fluorescence, respectively. Fluorescence emission spectra were also recorded for all inhibitors, using the same excitation wavelength (355 nm) as for the fluorometric assay. […] The reaction was started by the addition of varying concentrations of the substrate and the wells monitored for a total of 5 minutes of reaction. The initial velocities of the substrate hydrolysis under first-order reaction were calculated by Gen5 Biotek software based on the linear-regression coefficient from the fit to data of Relative Fluorescence Unit (mRFU) as a function of time (min).
Each experiment was performed in duplicates for each compound being tested. […] All inhibitors were evaluated in two different concentrations, which were chosen based on a previous screening (percentage of inhibition) at 1.7 μM substrate (~K M). […] SigmaPlot (v. 10.0) was employed for the non-linear fit and the kinetic parameters determination.

Take `CC(C)C[C@H](NC(=O)OC(C)(C)C)C(=O)NCC#N` [Compound 27, tert-butyl N-[(1S)-1-[(cyanomethyl)carbamoyl]-3-methylbutyl]carbamate]: the killing at 32 µM in experiment [1] was found to be 0%; in experiment [2], 19 ± 3%. In the experiment on LLCMK2 cells, the cytotoxicity at 32 µM was determined as 0%. At cruzain, this compound showed a Ki of 1260 nM.

Compound `CC(C)C[C@H](NC(=O)OC(C)(C)C)C(=O)NC1(C#N)CC1` [Compound 31, tert-butyl N-[(1S)-1-[(1-cyanocyclopropyl)carbamoyl]-3-methylbutyl]carbamate] showed an inhibition constant (Ki) at cruzain of 631 nM.

As for `Cn1nc(C(C)(C)C)cc1C(=O)N[C@@H](Cc1ccccc1)C(=O)NC1(C#N)CC1` [Compound 34, (2S)-2-[(5-tert-butyl-2-methylpyrazol-3-yl)formamido]-N-(1-cyanocyclopropyl)-3-phenylpropanamide], the killing at 32 µM in experiment [1] is 0%; in experiment [2], 23 ± 3%. In addition, the cytotoxicity at 32 µM in the experiment on LLCMK2 cells came out at 17 ± 3%. For the same compound, the inhibitory constant (Ki) on cruzain is 63.1 nM.

As for `N#CCNC(=O)[C@H](Cc1ccccc1)NC(=O)c1cnccn1` [Compound 19, (2S)-N-(cyanomethyl)-3-phenyl-2-(pyrazin-2-ylformamido)propanamide], the values for the killing at 32 µM in experiment [1] and in experiment [2] were 22 ± 7% and 21 ± 8%, respectively. In addition, in experiment [1] (amastigote), the EC50 was 79400 nM. In addition, the cytotoxicity at 32 µM with LLCMK2 cells is 14 ± 1%. The compound also had a Ki on cruzain of 1580 nM.

On to `N#CCNC(=O)[C@H](Cc1ccccc1)NC(=O)c1cc(=O)[nH]c(=O)[nH]1` [Compound 23, (2S)-N-(cyanomethyl)-2-[(2,6-dioxo-1,2,3,6-tetrahydropyrimidin-4-yl)formamido]-3-phenyl propanamide], for which, in experiment [1], the “%cell lysis at 32 μM ama Tula” value was 0%. Besides, the “%cell lysis at 32 μM ama Brener” value in experiment [2] is 27 ± 1%. In addition, the “%cell lysis at 32 μM LLCMK2” value in the experiment with LLCMK2 cells is listed as 22 ± 5%. At cruzain, the negative logarithm of the Ki (pKi) came out at 5.9.

Take `Cn1nc(C(F)(F)F)cc1C(=O)N[C@@H](Cc1ccccc1)C(=O)NCC#N` [Compound 22]: in experiment [1], the “%cell lysis at 32 μM ama Tula” value turned out to be 48 ± 4%. The “pEC50 ama Tula” value in experiment [1] (amastigote) was 4.0. In experiment [2], the “%cell lysis at 32 μM ama Brener” value stood at 20 ± 2%. Further, the “%cell lysis at 32 μM LLCMK2” value in the experiment with LLCMK2 cells was 19 ± 0.4%. The pKi at cruzain was determined as 6.3.

In the case of `N#CCNC(=O)[C@H](Cc1ccccc1)NC(=O)OCc1ccccc1` [Compound 24, Benzyl N-[(1S)-1-[(cyanomethyl)carbamoyl]-2-phenylethyl]carbamate], the Ki at cruzain was 501 nM.

As for `N#CC1(NC(=O)[C@H](Cc2ccccc2)NC(=O)c2ccccc2)CC1` [Compound 7, (2S)-N-(1-cyanocyclopropyl)-3-phenyl-2-(phenylformamido)propanamide], the killing at 32 µM in experiment [1] stood at 16 ± 10%. For the same compound, the EC50 in experiment [1] (amastigote) was 126000 nM. The compound also showed a Ki on cruzain of 251 nM.

In turn, `CC(C)(C#N)NC(=O)[C@H](Cc1ccccc1)NC(=O)c1ccccc1` [Compound 8, (2S)-N-(1-cyano-1-methylethyl)-3-phenyl-2-(phenylformamido)propanamide] showed a Ki on cruzain of 3160 nM.

On to `N#CCNC(=O)[C@H](Cc1ccccc1)NC(=O)C(F)(F)F` [Compound 15, (2S)-N-(cyanomethyl)-3-phenyl-2-(trifluoroacetamido)propanamide], for which the Ki at cruzain is 3980 nM.

As for `N#CCNC(=O)[C@H](Cc1ccccc1)NC(=O)c1cncc(Br)c1` [Compound 20, (2S)-2-[(5-bromopyridin-3-yl)formamido]-N-(cyanomethyl)-3-phenylpropanamide], the values for the killing at 32 µM in experiment [1] and in experiment [2] were 0% and 25 ± 8%, respectively. In addition, the cytotoxicity at 32 µM with LLCMK2 cells came out at 17 ± 1%. Further, the inhibition constant (Ki) at cruzain was 251 nM.

Take `CC(C)C[C@H](NC(=O)c1cc(C(C)(C)C)nn1C)C(=O)NC1(C#N)CC1` [Compound 30, (2S)-2-[(3-tert-butyl-1-methyl-1H-pyrazol-5-yl)formamido]-N-(1-cyanocyclopropyl)-4-methylpentanamide]: the killing at 32 µM in experiment [2] is 11 ± 6%. Also, affinity at cruzain was put at a Ki of 25.1 nM.
